Assay results reported in ChEMBL document CHEMBL6071129, “Strategies that regulate Hippo signaling pathway for novel anticancer therapeutics” (Eur J Med Chem, 2024).

Columns and labels:
[1] = Antiproliferative activity against human 92.1 cells incubated for 72 hrs by CCK8 assay; format: functional, cell-based; conditions: 92-1, 72 h
[2] = Half life in ICR mouse at 15 mg/kg, po measured upto 24 hrs by LC-MS/MS analysis; format: ADME, organism-based; conditions: in vivo
[3] = Antiproliferative activity against human MP41 cells incubated for 72 hrs by CCK8 assay; format: functional, cell-based; conditions: MP41, 72 h
[4] = Antitumor activity against human MP41 cells xenografted in BALB/c nu/nu mouse assessed as tumor growth inhibition at 30 mg/kg/day, ip administered for 21 days; format: functional; conditions: MP41, 504 h, time 21 day, read-out: TGI
[5] = molecular target: Transcriptional enhancer factor TEF-3 (Homo sapiens, UniProt Q15561); assay: Inhibition of TEAD4 (unknown origin) autopalmitoylation
[6] = Inhibition of YAP (unknown origin) to TEAD4 (unknown origin) protein protein interaction; parameters: species or system Homo sapiens
[7] = tested on: HCT-116; assay: Antiproliferative activity against human HCT-116 cells incubated for 72 hrs; format: functional, cell-based; conditions: HCT-116, 72 h
[8] = Inhibition of TEAD in HEK293 cells expressing YAP; format: cell-based, Homo sapiens
[9] = tested on: SW1990; assay: Antiproliferative activity against human SW1990 cells incubated for 48 hrs by MTT assay; format: functional, cell-based; conditions: SW1990, 48 h
[10] = tested on: MIA PaCa-2; assay: Antiproliferative activity against human MIA PaCa-2 cells incubated for 48 hrs by MTT assay; format: functional, cell-based; conditions: MIA PaCa-2, 48 h
[11] = tested on: PANC-1; assay: Antiproliferative activity against human PANC-1 cells incubated for 48 hrs by MTT assay; format: functional, cell-based; conditions: PANC-1, 48 h
[12] = Antitumor activity against human MIA PaCa2 cells xenografted in BALB/c mouse assessed as tumor growth inhibition at 5 mg/kg, ip administered for every 2 days; format: functional; conditions: 48 h, time 2 day, read-out: TGI
[13] = tested on: ASPC1; assay: Antiproliferative activity against human ASPC1 cells incubated for 48 hrs by MTT assay; format: functional, cell-based; conditions: ASPC1, 48 h
[14] = tested on: SU.86.86; assay: Antiproliferative activity against human SU-86-86 cells incubated for 48 hrs by MTT assay; format: functional, cell-based; conditions: SU.86.86, 48 h
[15] = tested on: BXPC-3; assay: Antiproliferative activity against human BXPC-3 cells incubated for 48 hrs by MTT assay; format: functional, cell-based; conditions: BXPC-3, 48 h
[16] = Inhibition of YAP (unknown origin)/TAZ-TEAD interaction (unknown origin); parameters: species or system Homo sapiens
[17] = tested on: MCF-10A; assay: Growth inhibition of human MCF-10A cells incubated for 48 hrs; format: functional
[18] = Inhibition of GST-tagged human TEAD1 to human His6-tagged YAP2 protein-protein interaction incubated for 2 hrs by AlphaLisa method
[19] = Antiproliferative activity against human A2780/CP70 cells incubated for 48 hrs by MTT assay; format: functional, cell-based; conditions: A2780/CP70, 48 h
[20] = tested on: A2780; assay: Antiproliferative activity against human A2780 cells incubated for 48 hrs by MTT assay; format: functional, cell-based; conditions: A2780, 48 h
[21] = tested on: HCT-116; assay: Antiproliferative activity against human HCT-116 cells incubated for 48 hrs by MTT assay; format: functional, cell-based; conditions: HCT-116, 48 h
[22] = Inhibition of TEAD4 (unknown origin) to YAP (unknown origin) expressed in HEK293 cells incubated for 16 hrs by dual luciferase reporter assay; format: cell-based; conditions: Homo sapiens, HEK293, 16 h
[23] = Antiproliferative activity against human HCA46 cells incubated for 48 hrs by MTT assay; format: functional, cell-based; conditions: HCA46, 48 h
[24] = tested on: HT-29; assay: Antiproliferative activity against human HT-29 cells incubated for 48 hrs by MTT assay; format: functional, cell-based; conditions: HT-29, 48 h
[25] = tested on: SCC-9; assay: Antitumor activity against human SCC9 cells xenografted in nude mouse assessed as tumor growth inhibition at 50 mg/kg, po administered every other day; format: functional; conditions: read-out: TGI
[26] = Inhibition of TAZ expressed in HEK293 cells incubated for 24 hrs by dual luciferase reporter assay; format: cell-based; conditions: Homo sapiens, HEK293, 24 h
[27] = tested on: SCC-15; assay: Antiproliferative activity against human SCC-15 cells incubated for 72 hrs by MTT assay; format: functional, cell-based; conditions: SCC-15, 72 h
[28] = tested on: SCC-9; assay: Antiproliferative activity against human SCC-9 cells incubated for 72 hrs by MTT assay; format: functional, cell-based; conditions: SCC-9, 72 h
[29] = tested on: HSC-3; assay: Antiproliferative activity against human HSC-3 cells incubated for 72 hrs by MTT assay; format: functional, cell-based; conditions: HSC-3, 72 h

Transcriptional enhancer factor TEF-3, sequence (Q15561 whole entry): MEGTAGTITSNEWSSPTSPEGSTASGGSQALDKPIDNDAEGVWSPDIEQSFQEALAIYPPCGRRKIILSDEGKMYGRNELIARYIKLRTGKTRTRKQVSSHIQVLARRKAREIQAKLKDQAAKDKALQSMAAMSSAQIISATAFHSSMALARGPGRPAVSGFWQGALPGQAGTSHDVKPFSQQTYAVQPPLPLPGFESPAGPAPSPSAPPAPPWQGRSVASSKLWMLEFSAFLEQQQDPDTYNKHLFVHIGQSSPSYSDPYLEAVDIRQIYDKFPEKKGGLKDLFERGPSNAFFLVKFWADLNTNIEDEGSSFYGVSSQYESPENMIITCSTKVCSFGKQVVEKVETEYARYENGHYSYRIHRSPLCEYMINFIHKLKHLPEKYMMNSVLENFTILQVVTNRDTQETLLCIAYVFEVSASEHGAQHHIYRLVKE

CN1CCCC1CN1CCn2cc(-c3ccccc3)nc2[C@@H]1CC1CCCCC1 (some centres undefined)
IC50 [1]: 10.4 µM
half-life [2]: 2.4 h
IC50 [3]: 5.1 µM
inhibition in vivo at 30 mg/kg/day [4]: 107%

CCOc1ccc(CN2CCCC(C(=O)c3cccc(C(F)(F)F)c3)C2)cc1CO (centres undefined)
IC50 [5]: 1.3 µM
IC50 [6]: 21.4 µM
IC50 [7]: 27.9 µM
IC50 [8]: 2.1 µM

COc1ccc(C(=O)O[C@H]2C=COC=C3[C@@H](O)[C@]45S[C@@H](C(=O)N4[C@@H]32)N(C)C5=O)cc1Oc1cc(C=O)ccc1O
IC50 [9]: < 4 µM
IC50 [10]: < 2 µM
IC50 [11]: < 2 µM
inhibition in vivo at 5 mg/kg [12]: 71%
IC50 [13]: < 2 µM
IC50 [14]: < 4 µM
IC50 [15]: < 2 µM

COc1ccc(CCNC(=O)C2=CS(=O)(=O)c3ccccc32)cc1
IC50 [16]: 12.7 µM
GI50 [17]: 3.2 µM

COc1cc(/C=N/N(CCO)C2=NS(=O)(=O)c3ccccc32)ccc1O
IC50 [18]: 25.4 µM

C=Cc1c(C)/c2[nH]/c1=C\C1=NC(=C\C3=NC(=C\C4=NC(=C5C=CC(C(=O)OC)=C(C(=O)OC)[C@@]45C)\C=2)/C(C)=C3CCC(=O)OC)/C(CCC(=O)O)=C1C
IC50 [19]: 12.3 µM
IC50 [20]: 12.4 µM
IC50 [21]: 14.7 µM
IC50 [22]: 8.6 µM
IC50 [23]: 5.55 µM
IC50 [24]: 3.1 µM

CC(C)[C@H](C(=O)Nc1ccc(C(=O)NO)cc1)c1ccccc1 [AR-42]
inhibition in vivo at 50 mg/kg [25]: 85%
IC50 [26]: < 0.3 µM
IC50 [27]: 0.35 µM
IC50 [28]: 0.24 µM
IC50 [29]: 0.8 µM
